# Measurements taken from BindingDB's records for doi:10.1021/jm990447m (Metabasis Therapeutics, 2000).
# Assay: Evaluated for the inhibition of porcine heart or human L-type Adenosine 5'-monophosphate deaminase (AMPDA)
structure (smiles),measurement,value
"O=C(O)CCCCCCCn1cnc2c1N=CNCC2O (stereo unspecified) [8-(8-Hydroxy-7,8-dihydro-6H-imidazo[4,5-d][1,3]diazepin-3-yl)-octanoic acid]",Ki,8 µM
"CCCCCCCCn1cnc2c1N=CNCC2O (stereo unspecified) [3-Octyl-3,6,7,8-tetrahydro-imidazo[4,5-d][1,3]diazepin-8-ol 0.25H2O]",Ki,18 µM
"O=C(O)CCCOCn1cnc2c1N=CNCC2O (stereo unspecified) [Sodium; 4-(8-hydroxy-7,8-dihydro-6H-imidazo[4,5-d][1,3]diazepin-3-ylmethoxy)-butyrate H2O]",Ki,85 µM
"CCCCCCCn1cnc2c1N=CNCC2O (stereo unspecified) [3-Heptyl-3,6,7,8-tetrahydro-imidazo[4,5-d][1,3]diazepin-8-ol]",Ki,10 µM
"COC(=O)CCCCCCCn1cnc2c1N=CNCC2O (stereo unspecified) [8-(8-Hydroxy-7,8-dihydro-6H-imidazo[4,5-d][1,3]diazepin-3-yl)-octanoic acid methyl ester]",Ki,20 µM
"N#CCCCCCCn1cnc2c1N=CNCC2O (stereo unspecified) [7-(8-Hydroxy-7,8-dihydro-6H-imidazo[4,5-d][1,3]diazepin-3-yl)-heptanenitrile]",Ki,170 µM
